# Data taken from patent US5990137A, “Method of inhibiting NADPH oxidase” (Idun Pharmaceuticals, Inc., priority 1998, dated 1999).
# Tests used:
# [1] = system: neutrophils; assay: Specificity: chemotaxis of neutrophils activated by f-Met-Leu-Phe; type: cell-based; settings: 50 μM
# Description: (§1) To assess specificity of action, the title compound (hereinafter "Azine") was tested for its ability to inhibit other functions of stimulated neutrophils and monocytes. The procedure followed was set forth in Mrowietz et al., British Journal of Dermatology, 127:382-386 (1992); Snyderman, Ralph, Methods for Studying Mononuclear Phagocytes, ed. Adams, Edelson, and Koren, New York, Academic Press, pp. 535-547 (1981); Sozzani et al., The Journal of Immunology, Oct. 1, 1991, pp. 2215-2221; Zigmond et al., The Journal of Experimental Medicine, 137:387 (1973); Wahl et al., Cell Immunol., 85:373 (1984); Wahl et al., Current Protocols in Immunology, ed. Coligan, Kruisbeek, Margulies, Shevach, and Strober, p. 7.6.1 (1991); Hogquist et al., J. Immunol, 147:2181 (1991). The Azine (50 μM) had no effect on chemotaxis of neutrophils activated by the chemotactic peptide f-Met-Leu-Phe.
# [2] = system: isolated neutrophils (opsonized zymosan-stimulated oxidative burst); assay: Measurement of chemiluminescence of isolated neutrophils (neutrophil burst, Lucigenin); type: cell-based; settings: for IC50 / inhibition at 50 µM: Neutrophil; for inhibition at 50 µM: percent inhibition at 50 μM, single concentration, read-out: Neutrophil Burst Screen Value (% @ 50 μM)
# Description: Whole blood (150 ml) was anticoagulated with Acid Citrate Dextrose (ACD) using a ratio of 1:5 ACD to blood.
# All steps are to be performed using polypropylene plastic ware.
# a. Whole blood (60 ml) was added to each of three 100 ml polypropylene graduated cylinders containing 30 ml of […]. The cylinders were covered securely with Parafilm. The blood was allowed to sediment for approximately 1 hour at room temperature.
# b. The turbid straw-colored layer was harvested from the top of the cylinders into 50 ml conical polypropylene tubes. The white blood cells were pelleted by centrifugation at 240×g (Sorvall at 1200 rpm) for 12 min. at 4° C. with the brake on low.
# c. The supernatant was removed by aspiration and the pooled pellet resuspended in 4-50 ml cold PBS (w/o Ca, Mg). It was then centrifuged at 240×g (Sorvall at 1200 rpm) for 6 min. at 4° C. with the brake on high.
# a. The supernatant was aspirated and the pellet resuspended in 12 ml of cold cell culture-grade water. The pellet was titrated gently with a pipet for exactly 30 seconds then 4 ml of cold 0.6 M KCl was added. It was then QSed to 50 ml with cold PBS (w/o Ca, Mg) and centrifuged at 300×g (Sorvall TY 6000D at 1400 rpm) for 6 min. at 4° C. with the brake on high.
# b. Step 2.a. was repeated once more.
# a. The supernatant was aspirated and the cells were resuspended in 2.5 ml cold PBS (w/o Ca, Mg). The cell suspension was carefully layered over 3 ml Ficoll-Hypaque in a 15 ml polypropylene conical tube. It was then centrifuged at 400×g (Sorvall at 1900 rpm) for 30 min. at 4° C. with the brake on low.
# b. Aspiration occurred down to the neutrophil pellet. The pellet was resuspended fin cold PBS (w/o Ca, Mg) and transferred to a 50 ml conical tube. It was then QSed to 50 ml with cold PBS (w/o Ca, Mg) and centrifuged at 300×g (Sorvall at 1400 rpm) for 6 min. at 4° C. with the brake on high.
# d. The supernatant was aspirated and the pellet resuspended in 50 ml cold PBS (w/o Ca, Mg) and centrifuged at 300×g (Sorvall at 1400 rpm) for 6 min. with the brake on high.
# e. The supernatant was aspirated and the neutrophil pellet resuspended in 4.0 ml cold PBS (w/o Ca, Mg). It was kept on ice. Trypan blue (10 μl) was diluted (1:40) and the cells were counted using a hemacytometer. The cell number and viability by Trypan […] exclusion were determined and the results recorded. The cells were diluted to 5.0×10^6 cells/ml with cold PBS-G (with Ca, Mg) prior to plating for the assay.
# 2. […] The suspension was centrifuged and the particles resuspended in 7 ml of PBS-G (with Ca, Mg)(18 mg/ml). It was stored on ice until used (briefly vortexed prior to pipetting).
# 4. PBS-G (10 μl) (with Ca, Mg) was added to the wells in a white 96 well plate.
# 6. The compound dilutions (10 μl) were added to the appropriate wells.
# 7. The cell prep was diluted to 5.0×10^6 cells/ml with PBS-G (with Ca, Mg) in a separate multipipette trough.
# 8. The neutrophil suspension (20 μl) was added to the appropriate wells.
# 9. The plate was incubated at 37° C. for three minutes.
# 10. Zymosan (10 μl of 18 mg/ml) was added to the appropriate wells.
# 11. The plate was read on the luminometer (Labsystems Luminoskan, Needham Heights, Mass.) for 14 min. at 37° C. on the kinetic mode and the results recorded using the software DeltaSoft.
# 12. The plate data was exported into Excel to determine percent of control and derive the means and standard deviations for the data. The IC50 was determined graphically from the data and plotted using SigmaPlot. For cases where one concentration (50 μM) was tested, percent inhibition was compared to that seen with 50 μM apocynin.
# 13. The results are set forth below in Table 1 as "Neutrophil Burst IC50 (Lucigenin)". The results for 50 μM inhibition in the single assay are reported as "Neutrophil Burst Screen Value (% @ 50 μM)".
# [3] = system: Jurkat cells; assay: Cytotoxicity assay employing Jurkat cells (MTT); type: cell-based; settings: Jurkat clone E6-1, MTT, 37° C. overnight
# Description: This Assay was performed as set forth in Hansen et al., Journal of Immunological Methods, 119:203-210 (19930; Mosmann, Journal of Immunological Methods, 65:55-63 (1983); and Slater et al., Biochem. Ciophys. Acta, 77:383 (1963); except as noted below.
# Compounds from the following Examples were tested for cytotoxicity using MTT (i.e., 3-[4,5-Dimethylthiazol-2-yl]-2,5-diphenyltetrazolium bromide; Thiazolyl Blue (Sigma, St. Louis, Mo.)).
# MTT was dissolved in basal culture media at a concentration of 5 mg/ml. If necessary, it was briefly warmed at 37° C. to fully dissolve, passed through a sterile filter, and aliquoted and stored at -20° C. until use.
# The Extraction Buffer used was a solution composed of 20% SDS, 2.5% Acetic Acid (80% 6 stock solution), 2.5% 1N Hcl, 50% Dimethylformamide/50% dissolved in distilled water, SDS was dissolved into buffer components with gentle heating and stirring and the resultant solution was filtered and stored until use.
# The MTT solution was added in an amount equal to 10% of the culture volume to each well in a 96-well plate containing 100,000 Jurkat cells/well.
# The wells were then incubated for 0.5 to 2 hours in standard culture conditions. A volume of extraction buffer equal to the culture volume was added. The 96-well plate was then sealed. The formazan crystals were allowed to extract at 37° C. for four hours. The plate was read on a spectrophotometer [Spectramax 250, Molecular Devices, Sunnyvale, Calif.] at an absorbance wavelength of 560 nm. (The background absorbance measured at 650 nm was subtracted from the value measured at 560 nm.)
# The Jurkat cells (Jurkat clone E6-1) were grown using standard conditions supplied by ATCC (American Type Culture Collection--Rockville, Md.).
# The compounds diluted in medium (RPMI 1640 plus 10% fetal bovine serum) stock solution of 100 μM, then this stock solution was further diluted 3-fold before testing in the instant assay.
# 2-Hydroxy-3-methoxy-E-nitrostyrene tested at 100 μM as death control cells, incubated under the above conditions at 37° C. overnight.
# The Extraction Buffer (100 μl) was added to each well and the resultant suspension was incubated 4 hours at 37° C.
# The results from this procedure are set forth above in Table 1 in the column marked "Cytotox (MTT/Jurkat)". […] Toxicity was rated "3" if dead cells and >50% reduction in MTT absorbance at 1 μM test compound.
# [4] = system: monocytes (TNF secretion); assay: Specificity: secretion of TNF by monocytes; type: cell-based; settings: 50 μM; LPS stimulated or unstimulated monocytes
# Description: as §1
# [5] = system: monocytes (IL-1 secretion); assay: Specificity: secretion of IL-1 by monocytes; type: cell-based; settings: 50 μM; LPS stimulated or unstimulated monocytes
# Description: as §1
# [6] = target: T1, Xanthine oxidase (Bos taurus, UniProt P80457); assay: Xanthine oxidase assay (superoxide by hypoxanthine/xanthine oxidase, Lucigenin); type: biochemical; settings: hypoxanthine 150 μM, buttermilk xanthine oxidase, 37° C.; for IC50: read-out: Xanthine Oxidase Inhibition IC50 (Integral)
# T1 construct: purchased Sigma x-1875; host or cells: buttermilk
# [7] = 14 min, opsonized zymosan, lucigenin, 37° C.
# T1 sequence (P80457 whole entry): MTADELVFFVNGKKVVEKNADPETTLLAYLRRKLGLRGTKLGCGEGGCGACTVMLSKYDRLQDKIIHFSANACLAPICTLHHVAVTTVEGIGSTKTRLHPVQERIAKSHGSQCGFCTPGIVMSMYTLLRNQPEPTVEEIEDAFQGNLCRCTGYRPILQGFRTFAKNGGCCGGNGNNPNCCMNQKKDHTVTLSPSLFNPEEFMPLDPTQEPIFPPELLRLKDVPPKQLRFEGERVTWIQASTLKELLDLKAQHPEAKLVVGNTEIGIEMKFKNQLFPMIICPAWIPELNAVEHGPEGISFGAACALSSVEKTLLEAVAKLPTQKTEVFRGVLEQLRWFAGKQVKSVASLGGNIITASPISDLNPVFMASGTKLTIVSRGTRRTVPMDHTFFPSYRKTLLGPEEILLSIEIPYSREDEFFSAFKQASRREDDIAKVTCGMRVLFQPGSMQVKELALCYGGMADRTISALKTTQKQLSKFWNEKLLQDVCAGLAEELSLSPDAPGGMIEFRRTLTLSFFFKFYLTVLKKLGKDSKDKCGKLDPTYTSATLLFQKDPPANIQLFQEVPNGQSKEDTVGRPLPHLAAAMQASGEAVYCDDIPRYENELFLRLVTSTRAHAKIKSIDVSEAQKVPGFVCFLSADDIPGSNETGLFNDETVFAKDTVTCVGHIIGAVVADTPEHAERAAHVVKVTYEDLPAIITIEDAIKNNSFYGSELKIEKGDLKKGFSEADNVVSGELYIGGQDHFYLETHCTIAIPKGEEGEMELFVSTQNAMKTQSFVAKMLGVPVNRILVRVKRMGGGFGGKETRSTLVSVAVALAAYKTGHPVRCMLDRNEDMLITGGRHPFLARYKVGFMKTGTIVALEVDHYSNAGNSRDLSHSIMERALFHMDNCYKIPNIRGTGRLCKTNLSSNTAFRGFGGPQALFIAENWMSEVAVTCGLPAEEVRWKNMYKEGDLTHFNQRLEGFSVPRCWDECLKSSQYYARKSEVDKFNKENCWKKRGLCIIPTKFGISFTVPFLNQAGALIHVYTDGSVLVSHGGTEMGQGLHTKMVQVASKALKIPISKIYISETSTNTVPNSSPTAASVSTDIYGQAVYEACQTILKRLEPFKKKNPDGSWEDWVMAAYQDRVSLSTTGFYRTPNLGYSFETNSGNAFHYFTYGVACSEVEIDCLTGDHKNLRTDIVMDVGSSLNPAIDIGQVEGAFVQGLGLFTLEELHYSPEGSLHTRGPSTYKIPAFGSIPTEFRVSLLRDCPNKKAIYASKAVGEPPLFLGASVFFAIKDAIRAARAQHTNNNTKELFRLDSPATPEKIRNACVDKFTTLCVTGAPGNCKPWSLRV
SMILES,effect on chemotaxis of neutrophils [1],"IC50 [2, 7] [µM]",inhibition at 50 µM [2] [%],Cytotox (MTT/Jurkat) [3],inhibition of secretion of TNF [4],inhibition of secretion of IL-1 [5],Xanthine Oxidase Inhibition IC50 (Integral) [6],"Neutrophil Burst IC50 (Lucigenin) ([2]; opsonized zymosan, lucigenin, 37° C., 14 min)",IC50 [6] [µM]
"COc1cc(/C=N/N=C/c2ccc(O)c(OC)c2)ccc1O [C, Bis[4-hydroxy-3-methoxybenzaldehyde]-trans,trans-azine]",no effect,4.9,85.6,0,did not inhibit,did not inhibit,No Effect,–,–
"COc1cc(/C=N/N=C/c2ccccc2)ccc1O [Example 13, N-[4-Hydroxy-3-Methoxybenzaldehyde]-N'-[Benzaldehyde]trans,trans-Azine]",–,44,–,0,–,–,No Effect,–,–
"COc1cccc(/C=N/N=C/c2cccc(OC)c2O)c1O [A, Bis[3-methoxy-2-hydroxybenzaldehyde]trans,trans-azine]",–,–,1.1,0,–,–,No Effect,No Effect,–
"Oc1ccc(/C=N/N=C/c2ccc(O)c(O)c2)cc1O [Example 12, Bis[3,4 - Dihydroxybenzaldehyde]trans,trans-Azine]",–,7.3,–,1 (dead cells and >50% reduction in MTT absorbance were observed at 100 μM of the test compound),–,–,–,–,1.1
"COc1cc(/C=N/N=C/c2ccc(O)cc2)ccc1O [Example 10, N-[4-Hydroxy-3-Methoxybenzaldehyde]-N'-[4-Hydroxybenzaldehyde]trans,trans-Azine]",–,8.5,–,0,–,–,No Effect,–,–
"Oc1ccc(/C=N/N=C/c2ccc(O)cc2)cc1 [Example 6, Bis[4-Hydroxybenzaldehyde]trans,trans-Azine]",–,13.5,–,0,–,–,No Effect,–,–
"COc1ccc(N=Cc2cc(OC)c(O)c(OC)c2)cc1 [Example 18, N-(3,5-Dimethoxy-4-Hydroxybenzylidene)-p-Methoxyaniline]",–,5,–,0,–,–,–,–,32
